Data from patent publication US12435067B2, “Truncated itraconazole analogues and methods of use thereof” (University of Connecticut, priority 2019, dated 2025).
≈ marks a conversion by molar mass, not a printed value. Where two headings read alike, the source gives them in different places.

Assays:
[1] = system: Gli1 mRNA expression in the Hh-dependent murine BCC cell line ASZ001; test: Hh inhibition: Gli1 mRNA expression in ASZ001 cells (qPCR); type: cell-based; conditions: for IC50: ASZ001 cells
Protocol: In order to continue SAR exploration of this region of the scaffold, efforts sought to synthesize and evaluate analogues that continue the scaffold truncation that was previously probed by removing the phenyl ring on the ‘right side’ of the scaffold and directly appending the 3-phenolic carboxylic acid of 2 to the piperazine amine to provide analogue 3. This analogue was evaluated for its ability to decrease Gli1 mRNA expression in the Hh-dependent murine BCC cell line ASZ001.
(§1) General protocols for cell culture, qPCR, and Hh inhibition in ASZ001 cells, C3H10T1/2 cells, and Sufu^−/− MEFs cells are as previously described (Pace et al. “Repurposing the clinically efficacious antifungal agent itraconazole as an anticancer chemotherapeutic. J. Med. Chem. 2016, 59, 3635-3649; Maschinot et al. “Synthesis and evaluation of third generation vitamin D3 analogues as inhibitors of Hedgehog signaling.” Eur. J. Med. Chem. 2019, 162, 495-506.). HC-04 cells were maintained in Dulbecco's modified Eagle's medium (Gibco Life Technologies) supplemented with 10% heat-inactivated fetal bovine serum (Gibco) and 1% pen-strep (Gibco) at 37° C. in 5% CO2. Cells were split 1:5 every 2-3 days, once they reached ˜80% confluency. Antiproliferation assay against HC-04 cells was using MTS method. The general protocol was the same as described earlier. (Banerjee et al. “Evaluation of vitamin D3 A-ring analogues as hedgehog pathway inhibitors.” Bioorg. Med. Chem. Lett. 2012, 22, pp. 1330-1334.) All data were analyzed with GraphPad Prism 5 and reported values represent the mean±SEM for at least two separate experiments carried out in triplicate for qPCR assay; or performed for at least three separate experiments carried out in quadruplicate for MTS assay.

[2] = Microsomal stability in human liver microsomes; conditions: for half-life / microsomal CLint: human; for half-life / microsomal CLint / Microsomal Stability T1/2 / Microsomal Stability Clint: human liver microsomes; for Microsomal Stability Clint: predicted intrinsic clearance
[3] = system: Gli1 mRNA in the Hh-dependent mouse embryonic fibroblast C3H10T1/2 cell line; test: Gli1 mRNA down-regulation in C3H10T1/2 cells (qPCR); type: cell-based; conditions: Mean ± SEM
Protocol: (§2) Both metabolites retain potent inhibition of Hh signaling (Table 3). […] Based on the improved activity of the truncated analogue 21, which contains approximately half of the intact ITZ scaffold, this analogue was also evaluated in Sufu^−/− mouse embryonic fibroblasts (MEFs) to determine whether Smo is still the most likely target of the metabolite.
as §1

in vitro = type: cell-based, human; conditions: human
Protocol: (§3) The activity for both metabolites prompted a study of their PK profile (Table 3). […] In addition, significant improvements in solubility at pH 7.4 and pH 4.0 compared to ITZ were found for analogue 21. Finally, the general toxicity of compounds 11 and 21 were evaluated by exploring their anti-proliferative activity in HC-04 cells, a human hepatocyte-derived cell line that abundantly expresses drug metabolizing enzymes (Table 5).
as §1

HC-04 cells = test: in vitro; type: cell-based, human
Protocol: as §3, §1

[4] = human, microsomes
[5] = system: Sufu−/− mouse embryonic fibroblasts (MEFs); test: Hh inhibition in Sufu−/− MEFs; type: cell-based
Protocol: as §2
General protocols for cell culture, qPCR, and Hh inhibition in ASZ001 cells, C3H10T1/2 cells, and Sufu^−/− MEFs cells are as previously described (Pace et al. “Repurposing the clinically efficacious antifungal agent itraconazole as an anticancer chemotherapeutic. J. Med. Chem. 2016, 59, 3635-3649; Maschinot et al. “Synthesis and evaluation of third generation vitamin D3 analogues as inhibitors of Hedgehog signaling.” Eur. J. Med. Chem. 2019, 162, 495-506.). […] (Banerjee et al. “Evaluation of vitamin D3 A-ring analogues as hedgehog pathway inhibitors.” Bioorg. Med. Chem. Lett. 2012, 22, pp. 1330-1334.) All data were analyzed with GraphPad Prism 5 and reported values represent the mean±SEM for at least two separate experiments carried out in triplicate for qPCR assay; or performed for at least three separate experiments carried out in quadruplicate for MTS assay.

[6] = Mus musculus, Gli1 mRNA expression, Mean ± SEM of at least two experiments in triplicate, read-out: ASZ001, IC50
[7] = C3H 10T1/2, Gli1 expression up-regulated by recombinant mouse sonic hedgehog (SHh), read-out: C3H10T1/2, IC50, SHh
[8] = Mus musculus, C3H 10T1/2, Gli1 expression up-regulated by oxysterols (OHCs), read-out: C3H10T1/2, IC50, OHCs
[9] = Gli1 mRNA expression, Mean ± SEM of at least two experiments in triplicate, read-out: ASZ001, IC50

C[C@@]1(c2ccc(Cl)cc2Cl)OCC(COc2ccc(N3CCN(C(=O)N/N=C/c4cccc(O)c4)CC3)cc2)O1 (some centres unmarked) [Compound 20]
less active (Hh inhibition) ([1]; 2R,4R-trans 20 compared with cis 18, ASZ001): approximately 5 fold | IC50 [1, 6]: 580 nM

C[C@]1(c2ccc(Cl)cc2Cl)OC[C@@H](COc2ccc(N3CCN(C(=O)c4ccncc4)CC3)cc2)O1 [Compound 7]
IC50 [1, 6]: 570 nM

C[C@]1(c2ccc(Cl)cc2Cl)OC[C@@H](COc2ccc(N3CCN(C(=O)c4cccnc4)CC3)cc2)O1 [Compound 6]
IC50 [1, 6]: 1300 ± 310 nM

C[C@]1(c2ccc(Cl)cc2Cl)OCC(COc2ccc(N3CCN(C(=O)CCc4ccc(O)c(O)c4)CC3)cc2)O1 (some centres unmarked) [Compound 22]
solubility (PBS solubility; pH 7.4, aqueous buffer): 0.84 µM (≈ 0.494 µg/mL) | half-life [2]: 6.6 min | microsomal CLint [2]: 104.7 ± 0.1 µL/min/mg | IC50 [1, 6]: 89 nM

C[C@]1(c2ccc(Cl)cc2Cl)OC[C@@H](COc2ccc(N3CCN(C(=O)c4ccc(O)cc4)CC3)cc2)O1 [Compound 4]
IC50 [1, 6]: 580 nM

C[C@]1(c2ccc(Cl)cc2Cl)OC[C@@H](COc2ccc(N3CCN(C(=O)c4ccc(N)cc4)CC3)cc2)O1 [Compound 9]
IC50 [1, 6]: 280 nM

C[C@]1(c2ccc(Cl)cc2Cl)OCC(COc2ccc(N3CCN(CCCc4cccc(O)c4)CC3)cc2)O1 (some centres unmarked) [Compound 23]
solubility (PBS solubility; pH 4, aqueous buffer): 0.13 µM (≈ 0.0725 µg/mL) | solubility (PBS solubility; pH 7.4, aqueous buffer): 0.02 µM (≈ 0.0112 µg/mL) | half-life [2]: 14 min | microsomal CLint [2]: 50 ± 0.8 µL/min/mg | IC50 [1, 6]: 870 nM

COc1cccc(CCC(=O)N2CCN(c3ccc(OC[C@@H]4CO[C@](C)(c5ccc(Cl)cc5Cl)O4)cc3)CC2)c1 [Compound 16]
IC50 [1, 6]: 460 nM

C[C@]1(c2ccc(Cl)cc2Cl)OC[C@@H](COc2ccc(N3CCN(C(=O)CCc4cccc(O)c4)CC3)cc2)O1 [Compound 11]
Solubility, PBS pH 4.0 (PBS solubility): 0.13 μM | Solubility, PBS pH 7.4 (PBS solubility): 0.03 μM | Microsomal Stability T1/2 [2]: 3.2 min | Microsomal Stability Clint [2]: 218 ± 9.7 µL/min/mg | IC50 [3, 7]: 170 ± 90 nM | IC50 [3, 8]: 650 ± 70 nM | GI50 (in vitro): 13200 ± 500 nM | GI50 (HC-04 cells; human): 13200 nM | IC50 ([1]; Mus musculus, read-out: IC50 value (anti-Hh activity)): 81 nM | IC50 [1, 6]: 81 nM

C[C@]1(c2ccc(Cl)cc2Cl)OC[C@@H](COc2ccc(N3CCN(C(=O)c4ccc([N+](=O)[O-])cc4)CC3)cc2)O1 [Compound 8]
IC50 [1, 6]: 160 nM

C[C@]1(c2ccc(Cl)cc2Cl)OC[C@@H](COc2ccc(N3CCN(C(=O)c4ccccn4)CC3)cc2)O1 [Compound 5]
IC50 [1, 6]: 1420 ± 300 nM

C[C@]1(c2ccc(Cl)cc2Cl)OC[C@@H](COc2ccc(N3CCN(C(=O)Cc4cccc(O)c4)CC3)cc2)O1 [Compound 10]
Solubility, PBS pH 4.0 (PBS solubility): 0.25 μM | Solubility, PBS pH 7.4 (PBS solubility): 0.13 μM | more stable (HLM stability) ([2]; 10 compared with 11, human liver microsomes): approximately 6.5 fold | Microsomal Stability T1/2 [2]: 20.4 ± 0.4 min | Microsomal Stability Clint [2]: 33.9 ± 0.6 µL/min/mg | IC50 [1, 6]: 380 ± 40 nM

C[C@]1(c2ccc(Cl)cc2Cl)OC[C@@H](COc2ccc(N3CCN(C(=O)CCc4ccccc4)CC3)cc2)O1 [Compound 15]
IC50 [1, 6]: 230 nM

Itraconazole [ITZ, reference compound]
Solubility, PBS pH 7.4: 0.80 μM | IC50 ([3]; Gli1 expression up-regulated by oxysterols (OHCs), read-out: C3H10T1/2, IC50, OHCs): 5900 ± 1300 nM | IC50 ([3]; Gli1 expression up-regulated by recombinant mouse sonic hedgehog (SHh), read-out: C3H10T1/2, IC50, SHh): 240 ± 200 nM | Microsomal Stability T1/2 [4]: 27.0 ± 6.2 min | GI50 (HC-04 cells): > 50000 nM | IC50 [1, 9]: 140 ± 20 nM

C[C@]1(c2ccc(Cl)cc2Cl)OC[C@@H](COc2ccc(N3CCN(C(=O)CCc4ccc(O)cc4)CC3)cc2)O1 [Compound 13]
IC50 [1, 6]: 260 ± 30 nM

N-(4-(4-(((2S,4R)-2-(2,4-Dichlorophenyl)-2-Methyl-1,3-Dioxolan-4-yl)Methoxy)Phenyl)Piperazin-l-yl)-2-((4-hydroxyphenyl)methylene)Hydrazinecarboxamide [Compound 19]
Solubility, PBS pH 4.0 (pH 4): 0.05 μM | Solubility, PBS pH 7.4: 0.02 μM | Microsomal Stability T1/2 [4]: 11.4 ± 0.2 min | IC50 [1, 9]: 960 nM

N-(4-(4-(((2S,4R)-2-(2,4-Dichlorophenyl)-2-Methyl-1,3-Dioxolan-4-yl)Methoxy)Phenyl)Piperazin-l-yl)-2-((3-hydroxyphenyl)methylene)Hydrazinecarboxamide [Compound 18]
IC50 [1, 9]: 120 nM

C[C@]1(c2ccc(Cl)cc2Cl)OC[C@@H](COc2ccc(N3CCN(C(=O)c4cccc(O)c4)CC3)cc2)O1 [Compound 3]
Solubility, PBS pH 4.0 (PBS solubility): 0.31 μM | Solubility, PBS pH 7.4 (PBS solubility): 0.17 μM | Microsomal Stability T1/2 [2]: 15.9 ± 0.2 min | Microsomal Stability Clint [2]: 43 ± 0.6 µL/min/mg | IC50 [1, 6]: 260 nM

CS(=O)(=O)c1ccc(C(=O)Nc2ccc(Cl)c(-c3ccccn3)c2)c(Cl)c1 [Vismodegib, reference compound]
IC50 [3, 7]: 22 ± 20 nM | IC50 [3, 8]: 10 ± 12 nM | GI50 (in vitro): > 100000 nM

C[C@]1(c2ccc(Cl)cc2Cl)OC[C@@H](COc2ccc(N3CCN(C(=O)/C=C/c4cccc(O)c4)CC3)cc2)O1 [Compound 12]
IC50 [1, 6]: 220 ± 30 nM | loss in Hh inhibitory activity ([1]; trans-alkene 12 compared with 11, ASZ001): approximately 3 fold

C[C@]1(c2ccc(Cl)cc2Cl)OC[C@@H](COc2ccc(N3CCN(C(=O)/C=C/c4ccc(O)cc4)CC3)cc2)O1 [Compound 14, 4-Hydroxy-N-(4-(4-(((2S,4R)-2-(2,4-Dichlorophenyl)-2-Methyl-1,3-Dioxolan-4-yl)Methoxy)Phenyl)Piperazin-1-yl)Cinnamamide]
IC50 [1, 6]: 360 ± 50 nM

C[C@]1(c2ccc(Cl)cc2Cl)OC[C@@H](COc2ccc(N3CCNCC3)cc2)O1 [Compound 21, 1-(4-(((2S,4R)-2-(2,4-Dichlorophenyl)-2-Methyl-1,3-Dioxolan-4-yl)Methoxy)Phenyl)Piperazine]
anti-Hh activity in Sufu−/− MEFs [5]: completely abolished | Solubility, PBS pH 4.0 (PBS solubility): 169.3 μM | Solubility, PBS pH 7.4 (PBS solubility): 11.7 μM | Microsomal Stability T1/2 [2]: 50.7 min | Microsomal Stability Clint [2]: 13.7 ± 0.4 µL/min/mg | IC50 [3, 7]: 1530 ± 200 nM | IC50 [3, 8]: 2700 ± 200 nM | GI50 (HC-04 cells; human): 27300 nM | IC50 [1, 6]: 22 nM

C[C@]1(c2ccc(Cl)cc2Cl)OC[C@@H](COc2ccc(N3CCN(C(=O)CCCc4ccc(O)cc4)CC3)cc2)O1 [Compound 17, 4-Hydroxy-N-(4-(4-(((2S,4R)-2-(2,4-Dichlorophenyl)-2-Methyl-1,3-Dioxolan-4-yl)Methoxy)Phenyl)Piperazin-1-yl)Phenylbutyric Amide]
IC50 [1, 6]: 470 nM
